Reference: ChEMBL document CHEMBL3885881, “DrugMatrix”

Species: Rattus norvegicus
Test: DrugMatrix - Regimen: Daily Repeat
Assay type: toxicity, organism-based, Sprague-Dawley
Parameters: regimen Daily Repeat, gender Male, age 6-8 weeks
Conditions: in vivo, po, route oral GAVAGE, vehicle .5 % CMC; for ABSOLUTE BASOPHIL / ABSOLUTE EOSINOPHIL / ABSOLUTE LYMPHOCYTE / ABSOLUTE MONOCYTE / ABSOLUTE SEGMENTED NEUTROPHIL / BASOPHIL / EOSINOPHIL / ERYTHROCYTE COUNT / HEMATOCRIT / HEMOGLOBIN / LEUKOCYTE COUNT / LYMPHOCYTE / MEAN CORPUSCULAR HEMOGLOBIN / MEAN CORPUSCULAR HEMOGLOBIN CONCENTRATION / MEAN CORPUSCULAR VOLUME / MONOCYTE / NEUTROPHIL / NUCLEATED RED BLOOD CELLS / PLATELET COUNT: tissue Blood; for ALANINE AMINOTRANSFERASE / ALBUMIN / ALKALINE PHOSPHATASE / ASPARTATE AMINOTRANSFERASE / BLOOD UREA NITROGEN / CARBON DIOXIDE / CHLORIDE / CHOLESTEROL / CREATINE PHOSPHOKINASE / CREATININE / GLUCOSE / LACTATE DEHYDROGENASE / LIPASE / PHOSPHORUS / POTASSIUM / SODIUM / TOTAL BILIRUBIN / TOTAL PROTEIN / URIC ACID: tissue Plasma
[1] = 0 mg/kg, 72 h, dose level Control, time 3 day
[2] = 0 mg/kg, 120 h, dose level Control, time 5 day
[3] = 40 mg/kg, 72 h, dose level Low, time 3 day

Structure (SMILES): C[C@@](Cc1ccc(O)c(O)c1)(NN)C(=O)O.O [CARBIDOPA]
- ABSOLUTE BASOPHIL [1]: 0 CELLS/uL
- ABSOLUTE EOSINOPHIL [1]: 222.83 CELLS/uL
- ABSOLUTE LYMPHOCYTE [1]: 14453 CELLS/uL
- ABSOLUTE MONOCYTE [1]: 0 CELLS/uL
- ABSOLUTE SEGMENTED NEUTROPHIL [1]: 1490.83 CELLS/uL
- BASOPHIL [1]: 0%
- EOSINOPHIL [1]: 1.33%
- ERYTHROCYTE COUNT [1]: 5.76 x10E6/uL
- HEMATOCRIT [1]: 36.52%
- HEMOGLOBIN [1]: 13.45 G/DL
- LEUKOCYTE COUNT [1]: 16.17 x10E3/uL
- LYMPHOCYTE [1]: 89.33%
- MEAN CORPUSCULAR HEMOGLOBIN [1]: 23.37 pg
- MEAN CORPUSCULAR HEMOGLOBIN CONCENTRATION [1]: 36.85 G/DL
- MEAN CORPUSCULAR VOLUME [1]: 63.47 fL
- MONOCYTE [1]: 0%
- NEUTROPHIL [1]: 9.33%
- NUCLEATED RED BLOOD CELLS [1]: 0 /100WBC
- PLATELET COUNT [1]: 1239.5 x10E3/uL
- ALANINE AMINOTRANSFERASE [1]: 43.83 u/L
- ALBUMIN [1]: 4.27 G/DL
- ALKALINE PHOSPHATASE [1]: 398.83 u/L
- ASPARTATE AMINOTRANSFERASE [1]: 81.17 u/L
- BLOOD UREA NITROGEN [1]: 17.67 mg/dL
- CARBON DIOXIDE [1]: 27.5 mmol/L
- CHLORIDE [1]: 99.17 MEQ/L
- CHOLESTEROL [1]: 74 mg/dL
- CREATINE PHOSPHOKINASE [1]: 331.5 u/L
- CREATININE [1]: 0.2 mg/dL
- GLUCOSE [1]: 171.33 mg/dL
- LACTATE DEHYDROGENASE [1]: 241.67 u/L
- LIPASE [1]: 9.5 u/L
- PHOSPHORUS [1]: 12.25 mg/dL
- POTASSIUM [1]: 6.33 MEQ/L
- SODIUM [1]: 141.28 MEQ/L
- TOTAL BILIRUBIN [1]: 0.15 mg/dL
- TOTAL PROTEIN [1]: 5.98 G/DL
- URIC ACID [1]: 1.63 mg/dL
- ABSOLUTE BASOPHIL [2]: 0 CELLS/uL
- ABSOLUTE EOSINOPHIL [2]: 148.67 CELLS/uL
- ABSOLUTE LYMPHOCYTE [2]: 16020.5 CELLS/uL
- ABSOLUTE MONOCYTE [2]: 29.17 CELLS/uL
- ABSOLUTE SEGMENTED NEUTROPHIL [2]: 1468.33 CELLS/uL
- BASOPHIL [2]: 0%
- EOSINOPHIL [2]: 1%
- ERYTHROCYTE COUNT [2]: 5.78 x10E6/uL
- HEMATOCRIT [2]: 35.77%
- HEMOGLOBIN [2]: 13.4 G/DL
- LEUKOCYTE COUNT [2]: 17.67 x10E3/uL
- LYMPHOCYTE [2]: 90.5%
- MEAN CORPUSCULAR HEMOGLOBIN [2]: 23.22 pg
- MEAN CORPUSCULAR HEMOGLOBIN CONCENTRATION [2]: 37.47 G/DL
- MEAN CORPUSCULAR VOLUME [2]: 61.92 fL
- MONOCYTE [2]: 0.17%
- NEUTROPHIL [2]: 8.33%
- NUCLEATED RED BLOOD CELLS [2]: 0.17 /100WBC
- PLATELET COUNT [2]: 1255.5 x10E3/uL
- ALANINE AMINOTRANSFERASE [2]: 46.5 u/L
- ALBUMIN [2]: 4.38 G/DL
- ALKALINE PHOSPHATASE [2]: 336 u/L
- ASPARTATE AMINOTRANSFERASE [2]: 76.5 u/L
- BLOOD UREA NITROGEN [2]: 20 mg/dL
- CARBON DIOXIDE [2]: 27.5 mmol/L
- CHLORIDE [2]: 101 MEQ/L
- CHOLESTEROL [2]: 71.33 mg/dL
- CREATINE PHOSPHOKINASE [2]: 231.83 u/L
- CREATININE [2]: 0.37 mg/dL
- GLUCOSE [2]: 168.83 mg/dL
- LACTATE DEHYDROGENASE [2]: 174 u/L
- LIPASE [2]: 8.67 u/L
- PHOSPHORUS [2]: 11.48 mg/dL
- POTASSIUM [2]: 6.82 MEQ/L
- SODIUM [2]: 143.8 MEQ/L
- TOTAL BILIRUBIN [2]: 0.2 mg/dL
- TOTAL PROTEIN [2]: 5.98 G/DL
- URIC ACID [2]: 1.83 mg/dL
- ABSOLUTE BASOPHIL [3]: 0 CELLS/uL
- ABSOLUTE EOSINOPHIL [3]: 143.67 CELLS/uL
- ABSOLUTE LYMPHOCYTE [3]: 13232.67 CELLS/uL
- ABSOLUTE MONOCYTE [3]: 0 CELLS/uL
- ABSOLUTE SEGMENTED NEUTROPHIL [3]: 1090.33 CELLS/uL
- BASOPHIL [3]: 0%
- EOSINOPHIL [3]: 1%
- ERYTHROCYTE COUNT [3]: 5.57 x10E6/uL
- HEMATOCRIT [3]: 35.7%
- HEMOGLOBIN [3]: 13.3 G/DL
- LEUKOCYTE COUNT [3]: 14.47 x10E3/uL
- LYMPHOCYTE [3]: 91.67%
- MEAN CORPUSCULAR HEMOGLOBIN [3]: 23.87 pg
- MEAN CORPUSCULAR HEMOGLOBIN CONCENTRATION [3]: 37.27 G/DL
- MEAN CORPUSCULAR VOLUME [3]: 64.03 fL
- MONOCYTE [3]: 0%
- NEUTROPHIL [3]: 7.33%
- NUCLEATED RED BLOOD CELLS [3]: 0 /100WBC
- PLATELET COUNT [3]: 1331.33 x10E3/uL
- ALANINE AMINOTRANSFERASE [3]: 40.33 u/L
- ALBUMIN [3]: 4.27 G/DL
- ALKALINE PHOSPHATASE [3]: 388.33 u/L
- ASPARTATE AMINOTRANSFERASE [3]: 77 u/L
- BLOOD UREA NITROGEN [3]: 14 mg/dL
- CARBON DIOXIDE [3]: 29 mmol/L
- CHLORIDE [3]: 100.67 MEQ/L
- CHOLESTEROL [3]: 72.33 mg/dL
- CREATINE PHOSPHOKINASE [3]: 210.67 u/L
- CREATININE [3]: 0.21 mg/dL
- GLUCOSE [3]: 156 mg/dL
- LACTATE DEHYDROGENASE [3]: 151.33 u/L
- LIPASE [3]: 8.33 u/L
- PHOSPHORUS [3]: 12.9 mg/dL
- POTASSIUM [3]: 6.71 MEQ/L
- SODIUM [3]: 144.3 MEQ/L
- TOTAL BILIRUBIN [3]: 0.23 mg/dL
- TOTAL PROTEIN [3]: 5.9 G/DL
- URIC ACID [3]: 1.83 mg/dL
